Key:
[1] = Volatility measurement at 100° C.; format: physicochemical; conditions: relative to the initial weight, after hours at 100° C.
Description: (§1) All 5 beakers were mounted in an oil bath such that half of the beakers were immersed. The temperature of the oil bath was set to 35° C. During the heating process, the beakers were periodically taken out of the oil bath, dried, and weighted. The total mass of the beaker with samples was noted and compared to the initial weight of the beakers with samples. The weight loss attributed to Compound A was calculated from the total weight loss of the sample by taking the loading of the respective sample with Compound A into account. A comparison of the weight loss of Compound A, and the whole sample weight loss in the all 5 beakers after 23 hours at 35° C. was shown in the Table 3.
Five beakers B1-B5 were prepared and treated as described in Example-1 with the differences that the oil bath was set to 100° C. and that the weight loss was recorded after […].

[2] = Volatility measurement at 60° C. (weight loss after 32 hours); format: physicochemical; conditions: relative to the initial weight, after 32 hours at 60° C.
Description: as §1
Five beakers B1-B5 were prepared and treated as described in Example-1 with the differences that the oil bath was set to 60° C. and that the weight loss was recorded after 32 hours.

[3] = Volatility measurement at 35° C. (weight loss of beakers in oil bath); format: physicochemical; conditions: relative to the initial weight, after 23 hours at 35° C.
Description: Five beakers B1-B5 were prepared containing samples as specified in Table 2
as §1

[4] = Volatility measurement at 60° C. with different loading for 24 or 72 hours (beakers B11-B15); format: physicochemical; conditions: relative to the initial weight
Description: Five beakers B11-B15 were prepared containing samples as specified in Table 8.
All 5 beakers B11-B15 were mounted in an oil bath such that half of the beakers were immersed. The temperature of the oil bath was set to 60′C. During the heating process, the beakers were periodically taken out of the oil bath, dried, and weighted. The total mass of the beaker with samples was noted and compared to the initial weight of the beakers with samples. The weight loss attributed to Compound A was calculated from the total weight loss of the sample by taking the loading of the respective sample with Compound A into account. A comparison of the weight loss of Compound A, and the whole sample weight loss in the all 5 beakers after 24 and 72 hours at 60° C. was shown in the Table 9.

sandy soil = test: Nitrogen retention in field trials (NH4-nitrogen content of soil); format: in vivo; conditions: incorporation depth 0 cm
Description: An area of sandy soil, previously untreated with fertilizer or other agricultural products near the field station Limburgerh of, was treated as follows. Drainage pipes of 20 cm in length and 12 cm diameter were inserted 10 cm deep into the soil. A treatment as indicated in a line of Table 10 was added on top of the soil under which a pipe was buried. At the beginning of the experiment and after three weeks, the pipes were dug out of the soil with its content, the content emptied into a bag and frozen on site. The soil was then analyzed for NH4-nitrogen content in the laboratory according to the following method: Samples were defrosted for 24 h, then sieved through a 5-6 mm mesh sieve. 200 g of the thus homogenized samples were put into 1 L plastic bottles and 600 mL of a […] solution (1% (w/w) K2SO4 in water) were added. The samples were then shaken for 2 h end over end. The solution was filtered to remove the soil and 50 mL of the filtrate retained for analysis in a Continuous Flow Analyzer for NH4-nitrogen content.

Row | Structure (SMILES) | Total sample weight loss [1] [%] | Weight loss of Compound A [1] [%] | Total sample weight loss [2] [%] | Weight loss of Compound A [2] [%] | Total sample weight loss [3] [%] | Weight loss of Compound A [3] [%] | Total sample weight loss after 24 hours ([4]; 24 hours) [%] | Weight loss of Compound A after 24 hours ([4]; 24 hours) [%] | Total sample weight loss after 72 hours ([4]; 72 hours) [%] | Weight loss of Compound A after 72 hours ([4]; 72 hours) [%] | NH4-nitrogen (sandy soil; 3 weeks after application) [kg/ha] | NH4-nitrogen (sandy soil; at time of application) [kg/ha]
1 | C#CCOCc1ccc(Cl)cc1 [Compound A, 1-chloro-4-(prop-2-ynoxymethyl)benzene] | 68.82 | 68.82 | 37.97 | 37.97 | 4.22 | 4.22 | 9.02 | 9.02 | 26.99 | 26.99 |  | 
2 | N.N.O=S(=O)(O)O [Ammonium Sulfate] |  |  |  |  |  |  |  |  |  |  | 8 | 75

From patent US20210047192A1, “DELAYED RELEASE FORMULATION OF NITRIFICATION INHIBITORS” (BASF SE, priority 2018, published 2021)
